Measurements reported in patent US4714699A, “2-tolylmorpholine derivatives and pharmaceutical compositions” (Societe Anonyme Dite: Laboratoire L. Lafon, priority 1983, dated 1987).
Entries after “also recorded” stand apart in the source; their conditions may differ.

Legend:
[1] = pretoxicity (LD-O, maximum non-lethal dose); format: in vivo, male mice
Procedure: (§1) In the following tests, CRL 40 875, in solution in distilled water, was administered intraperitoneally in a volume of 20 ml/kg to male mice and 5 ml/kg to male rats.
(§2) In the following tests, CRL 40 897, in solution in distilled water (pH 4), was administered intraperitoneally in a volume of 20 ml/kg to male mice and in a volume of 5 ml/kg to male rats, the procedures being those given above for CRL 40 875.
(§3) In the tests undertaken, CRL 40 912, in solution in distilled water (pH 4.5), was administered intraperitoneally in a volume of 20 ml/kg to male mice and in a volume of 5 ml/kg to male rats, the procedures being those given above for CRL 40 875.
(§4) The toxicological and neuropsychopharmacological studies undertaken in accordance with the procedures described above for CRL 40 875 enabled the following observations to be made: […]

[2] = overall behavior and reactivities in mice; format: in vivo, male mice
Procedure: as §1
Groups of three mice are observed before and then 15 minutes, 30 minutes, 1 hour, 2 hours, 3 hours and 24 hours after the administration of CRL 40 875.
as §2, §4

[3] = interaction with apomorphine in mice; format: in vivo, male mice
Procedure: as §1
Groups of 6 mice receive CRL 40 875 0.5 hour before the subcutaneous injection of 1 or 16 mg/kg of apomorphine.
as §2, §3

[4] = interaction with apomorphine in rats; format: in vivo, male rats; conditions: i.p., 0.5 mg/kg apomorphine
Procedure: as §1
CRL 40 875 is administered to groups of 6 rats 0.5 hour before the subcutaneous injection of 0.5 mg/kg of apomorphine.
as §2, §3

[5] = interaction with amphetamine; format: in vivo, male rats; conditions: i.p.; 2 mg/kg amphetamine; rats
Procedure: as §1, §2, §3

[6] = interaction with reserpine; format: in vivo, male mice; conditions: i.p.
Procedure: as §1
Four hours after the intraperitoneal injection of 2.5 mg/kg of reserpine, groups of 6 mice receive CRL 40 875. The effects on the temperature and ptosis are observed.
as §2, §3

[7] = interaction with oxotremorine; format: in vivo, male mice
Procedure: as §1
CRL 40 875 is administered to groups of 6 mice half an hour before the intraperitoneal injection of 0.5 mg/kg of oxotremorine.
as §2, §3

four plate test = format: in vivo, male mice; conditions: i.p., mice
Procedure: as §1
(§5) The test is performed on groups of 10 mice half an hour after the administration of CRL 40 875.
as §2

[8] = action on the spontaneous motility; format: in vivo, male mice; conditions: mice
Procedure: as §1
Half an hour after they have received CRL 40 875, the mice (6 per dose, 12 control animals) are placed in an actimeter, where their motility is recorded for 30 minutes.
as §2

[9] = action on the intergroup aggressiveness; format: in vivo, male mice; conditions: i.p., mice
Procedure: as §1
After they have stayed for 3 weeks in the two halves of a cage divided by an opaque partition, groups of 3 mice receive CRL 40 875. Half an hour later, the two groups from the same cage are brought together by removal of the partition, and the number of fights which occur in 10 minutes is noted.
as §2, §3

[10] = motility reduced by habituation to the enclosure; format: in vivo, male mice; conditions: i.p.
Procedure: as §1
After they have stayed in the actimeters for 18 hours, the mice (6 per dose, 12 control animals) receive CRL 40 875. They are immediately returned to their respective enclosures and, half an hour later, their motility is recorded for 30 minutes.
as §2, §3

[11] = motility reduced by hypoxic aggression; format: in vivo, male mice; conditions: i.p.
Procedure: as §1
Half an hour after they have received CRL 40 875, the mice (10 per dose, 20 control animals) are subjected to acute hypobaric anoxia [pressure reduction of 600 mm Hg (i.e. about 8×10^4 pascals) in 90 seconds; release of vacuum in 45 seconds] and are then placed in an actimeter, where their motility is recorded for 10 minutes.
as §2

[12] = asphyxiant anoxia (gallamine triiodoethylate); format: in vivo, male mice; conditions: i.p., mice
Procedure: as §1
Groups of 20 mice receive CRL 40 875 half an hour before the intraperitoneal administration of 32 mg/kg of gallamine triidoethylate (which is a reference curarizing agent).
as §2, §3

[13] = clinical trials, treatment of depressions; format: in vivo; conditions: man
Excerpt: In clinical trials, good results were obtained on man with CRL 40 875 (Example 1), CRL 40 912 (Example 2) and CRL 40 897 (Example 3) in the treatment of depressions.

[14] = neuropsychopharmacological study, overall findings; format: in vivo, mice, rats; conditions: for variation of sedative effects with dose: in vivo; for antidepressant effects: strong doses; for sedative effects: weak doses where stated
Procedure: as §1, §2, §3, §4

traction test = format: in vivo, male mice; conditions: i.p., mice
Procedure: as §1, §5, §2

electric shock = format: in vivo, male mice; conditions: i.p., mice
Procedure: as §1, §5, §2

α-adrenergic = α-adrenergic stimulation; conditions: in vivo
[15] = cardiovascular study in dogs; format: in vivo
[16] = cardiovascular study in rats; format: in vivo; conditions: wake rats
[17] = high dose (64 mg/kg) i.p., mice
[18] = anesthetized dogs, intraduodenal (CRL 40 903: then intravenous)
[19] = intraduodenal, anesthetized dogs

Cc1ccc(C2CN(C)CCO2)cc1.Cl (stereo not drawn) [CRL 40 897, 2-p-tolyl-4-methylmorpholine hydrochloride]
signs of toxicity ([1]; 64 mg/kg i.p., mice): dyspnea, sedation
trembling, animals affected ([1]; 64 mg/kg i.p., mice): 1/3
mortality ([1]; 128 mg/kg i.p., groups of three mice): no mortality
signs of toxicity ([1]; 128 mg/kg i.p., groups of three mice, hydrochloride): dyspnea, trembling; also recorded: sedation
convulsions, animals affected ([1]; 128 mg/kg i.p., mice): 2/3
convulsions, animals affected ([1]; 256 mg/kg i.p., mice): 2/3
copious salivation, animals affected ([1]; 256 mg/kg i.p., mice): 1 out of 3
death, animals affected ([1]; 256 mg/kg i.p., mice): 3/3
signs of toxicity ([1]; 256 mg/kg i.p., mice): dyspnea
time to death ([1]; 256 mg/kg i.p., mice): 10 min
duration of hypothermia ([2]; 4 mg/kg i.p., mice): 0.5 h
hypothermia (temperature change) ([2]; 4 mg/kg i.p., mice): -2.2 °C
duration of hypothermia ([2]; 16 mg/kg i.p., mice): 0.5 h
hypothermia (temperature change) ([2]; 16 mg/kg i.p., mice): -2.4 °C
depressed respiration, animals affected ([2]; 64 mg/kg i.p., mice): 2/3
duration of depressed respiration ([2]; 64 mg/kg i.p., mice): 3 h
duration of sedation ([2]; 64 mg/kg i.p., mice): 3 h
duration of significant salivation ([2]; 64 mg/kg i.p., mice): 1 h
hypothermia (temperature change) ([2]; 64 mg/kg i.p., mice): -2.2 °C
sedation, animals affected ([2]; 64 mg/kg i.p., mice): 3 out of 3
significant salivation, animals affected ([2]; 64 mg/kg i.p., mice): 3/3
minimal effective dose ([3]; Mus musculus, ip, mice, read-out: dose as from which hypothermic effect is present): ≥ 4 mg/kg
effect on the temperature drop induced by apomorphine [3, 17]: partially counteracts the temperature drop induced by apomorphine
effect on righting behavior and stereotypies ([3]; i.p., apomorphine, mice): without modifying the righting behavior and the stereotypies
effect on stereotypies induced by apomorphine [4]: does not modify the stereotypies induced by apomorphine
effect on stereotypies induced by amphetamine [5]: The increase observed in the other groups merely reflect this anomaly
effect on the hypothermia and ptosis induced by reserpine ([6]; mice): does not modify the hypothermia and ptosis induced by reserpine
minimal effective dose ([7]; Mus musculus, ip, mice, read-out: dose as from which hypothermic effect is distinct): ≥ 4 mg/kg
effect on the temperature drop induced by oxotremorine [7, 17]: partially counteracts the temperature drop induced by oxotremorine
effect on signs of peripheral cholinergic stimulation induced by oxotremorine ([7]; i.p., mice): leaves unchanged the signs of peripheral cholinergic stimulation induced by oxotremorine
effect on the trembling due to oxotremorine ([7]; i.p., mice): not influenced
number of punished passes (four plate test): does not cause an increase in the number of punished passes
minimal effective dose ([8]; Mus musculus, ip, read-out: dose as from which motility is reduced): ≥ 4 mg/kg
effect on spontaneous motor activity ([8]; as from 4 mg/kg i.p.): depresses the spontaneous motor activity of mice
effect on aggressiveness / number of fights [9]: does not cause a distinct reduction in the number of fights
resumption in the activity of mice accustomed to their enclosure [10]: does not cause a resumption in the activity of mice accustomed to their enclosure
motor recovery in mice after reduced-pressure enclosure [11]: does not cause any improvement in the motor recovery
time taken for convulsions and death to occur following asphyxiant anoxia [12]: delays the time taken for convulsions and death to occur
results in the treatment of depressions [13]: good results
variation of sedative effects with dose [14]: increase continuously with the dose administered, up to a maximum value, and then decrease continuously and progressively as the dose increases
antidepressant effects [14]: antidepressants at strong doses
sedative effects [14]: sedative effects (hypomotility, hypothermia, reduction of intergroup aggressiveness
major motor incapacity (traction test): does not cause major motor incapacity
effect on electric shock (electric shock): does not modify the convulsant and lethal effects of electric shock
α-adrenergic stimulant effect (α-adrenergic): stimulant effects, especially of the α-adrenergic type

Cc1ccccc1C1CN(C(C)(C)C)CCO1 (stereo not drawn) [CRL 40 910, 2-o-tolyl-4-tert.-butylmorpholine]
femoral and vertebral flow rates ([15]; 0.5 mg/kg intraduodenally, anesthetized dogs): significantly increases the femoral and vertebral flow rates
effect of propanolol on the increase in femoral flow rate ([15]; anesthetized dogs, intraduodenal): not totally inhibited by propanolol
dose as from which tachycardia appears [15, 18]: 1 mg/kg
effect on the hypertension induced by noradrenaline [15, 18]: reduces the hypertension induced by noradrenaline
effect on the hypotension / effects of isoprenaline [15, 18]: does not modify the effects of isoprenaline
vasodilator property ([15]; dog, in vivo): particularly interesting as vasodilators
effect on respiration [15, 19]: stimulates respiration in dogs
rectal and skin temperatures [15, 19]: increase progressively
tachycardia, degree [15, 19]: remains weak
venous pressure [15, 19]: increase progressively, as does the venous pressure
effect of propanolol on the effects on heart beat and vertebral flow rate ([15]; propanolol 1 mg/kg intravenously, anesthetized dogs): antagonized by propanolol
LD-O (maximum non-lethal dose) ([1]; intraperitoneally, male mice): greater than 128 mg/kg
hypothermia ([2]; 64 mg/kg i.p., male mice): moderate hypothermia
duration of hypothermia ([2]; 64 mg/kg i.p., mice): 0.5 h
sedative effects [14]: sedative effects

Cc1cccc(C2CN(C)CCO2)c1.Cl (stereo not drawn) [CRL 40 912, 2-m-tolyl-4-methylmorpholine hydrochloride]
effect on blood pressure ([15]; 1 mg/kg i.p., anesthetized dogs): hypertensive agent
effect on hypertensive action ([15]; 5 mg/kg i.p., anesthetized dogs): this effect decreases
dose as from which bradycardia is caused ([15]; i.p., anesthetized dogs): ≥ 5 mg/kg
bradycardia [16]: bradycardia is of short duration
mean blood pressure [16]: no action on the mean blood pressure
effect on the hypothermic effects of apomorphine ([3]; strong dose, i.p.): opposes the hypothermic effects of apomorphine
effect on stereotypies induced by amphetamine [5]: does not reduce the intensity of the stereotypies induced by amphetamine
effect on the ptosis induced by reserpine ([6]; mice): significant antagonism of the ptosis induced by reserpine
effect on the hypothermic effects of reserpine ([6]; weaker dose): opposes those of reserpine
effect on the temperature drop caused by oxotremorine ([7]; strong dose, i.p.): opposes the hypothermic effects of apomorphine and oxotremorine
effect on aggressiveness / number of fights [9]: reduction of aggressiveness
resumption in the activity of mice accustomed to their enclosure [10]: does not cause a resumption in the motor activity of mice accustomed to their enclosure
time taken for convulsions and death to occur following asphyxiant anoxia [12]: delay in the time taken for convulsions and death to occur
results in the treatment of depressions [13]: good results
variation of sedative effects with dose [14]: increase continuously with the dose administered, up to a maximum value, and then decrease continuously and progressively as the dose increases
antidepressant effects ([14]; hydrochloride): antidepressant at a strong dose; also recorded: antidepressants at strong doses
sedative effects ([14]; hydrochloride): sedative effects (hypomotility, hypothermia) comparable to those of α-adrenergic blocking substances or to clonidine; also recorded: acts as a sedative at a weak dose; also recorded: sedative effects (hypomotility, hypothermia, reduction of intergroup aggressiveness
α-adrenergic stimulant effect (α-adrenergic; hydrochloride): effect of the α-stimulant type; also recorded: very distinct peripheral α-adrenergic stimulant action (piloerection, exophthalmos, significant antagonism of the ptosis induced by reserpine); also recorded: stimulant effects, especially of the α-adrenergic type
